Measured values taken from PMC8185113, “Critical angle reflection imaging for quantification of molecular interactions on glass surface” (Nature Communications, 2021).

Assays:
[1] = molecular target: T1, nicotinic acetylcholine receptor (nAChR), human α4β2 receptor on SH-EP1_α4β2 cells (Homo sapiens, UniProt P17787+P43681); assay: acetylcholine binding to nAChR on fixed SH-EP1_α4β2 cells measured by CAR imaging; settings: 61.6 degrees, average of seven cells, global fit
T1 construct: expressed in transfected cells; host or cells: SH-EP1 cells (SH-EP1_α4β2), gift from Dr. Jie Wu
T1 sequence (P43681 29-627 limits assumed): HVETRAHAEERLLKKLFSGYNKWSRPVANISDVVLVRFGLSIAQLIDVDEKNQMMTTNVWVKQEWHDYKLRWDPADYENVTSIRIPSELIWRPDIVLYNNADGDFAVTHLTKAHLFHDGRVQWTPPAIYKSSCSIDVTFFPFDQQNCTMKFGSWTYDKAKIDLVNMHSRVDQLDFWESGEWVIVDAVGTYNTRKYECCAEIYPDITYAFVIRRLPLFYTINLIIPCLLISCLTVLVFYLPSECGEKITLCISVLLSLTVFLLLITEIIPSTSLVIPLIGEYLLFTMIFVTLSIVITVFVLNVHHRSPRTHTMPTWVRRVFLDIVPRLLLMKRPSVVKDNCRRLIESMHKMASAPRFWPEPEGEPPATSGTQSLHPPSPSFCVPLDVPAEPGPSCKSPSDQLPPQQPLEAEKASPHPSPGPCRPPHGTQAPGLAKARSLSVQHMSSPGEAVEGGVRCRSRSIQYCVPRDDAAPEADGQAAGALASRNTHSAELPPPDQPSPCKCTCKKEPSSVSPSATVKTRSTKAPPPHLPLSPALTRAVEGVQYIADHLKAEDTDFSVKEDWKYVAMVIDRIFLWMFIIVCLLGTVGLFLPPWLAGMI
T1 sequence (P17787 26-502): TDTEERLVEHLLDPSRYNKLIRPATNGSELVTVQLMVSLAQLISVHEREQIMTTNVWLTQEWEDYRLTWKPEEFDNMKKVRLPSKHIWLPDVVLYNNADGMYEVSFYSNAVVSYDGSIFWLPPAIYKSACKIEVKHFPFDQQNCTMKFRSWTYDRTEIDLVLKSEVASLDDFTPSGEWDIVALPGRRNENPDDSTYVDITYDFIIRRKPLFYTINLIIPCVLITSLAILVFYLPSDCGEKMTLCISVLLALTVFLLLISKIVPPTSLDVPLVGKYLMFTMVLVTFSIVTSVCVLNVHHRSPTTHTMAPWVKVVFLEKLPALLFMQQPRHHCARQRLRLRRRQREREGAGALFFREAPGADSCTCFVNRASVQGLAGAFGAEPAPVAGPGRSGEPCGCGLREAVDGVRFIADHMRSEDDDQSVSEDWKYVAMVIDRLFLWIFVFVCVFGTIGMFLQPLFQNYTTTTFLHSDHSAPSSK
Procedure: (§1) Most drugs are small molecules, and over 50% drug targets are membrane proteins.
(§2) CAR angle was set at 61.6 degrees with a sensitivity of 112 RIU^−1. The binding kinetic curves (black) were obtained by averaging the CAR response of seven cells and globally fitted to the first-order kinetics (red) (see Supplementary Figure 12b for the response of individual cells).
(§3) All the cell-related experiments including CAR, SPR, transmitted and fluorescence measurements (Figs. 4–6) were performed on an objective-based SPR microscope setup, which consisted of an inverted microscope (Olympus IX-81) and a ×60 (NA 1.49) oil-immersion objective. The light source for CAR and SPR imaging was a superluminescent light-emitting diode (SLED) (SLD-260-HP-TOW-PD-670, Superlum, Ireland) with 670 nm wavelength and 1 mW power set by a SLED current driver (PILOT4-AC, Superlum). The SLED was mounted on a translation stage (PT3, Thorlabs) with a motorized actuator (Z825B, Thorlabs) for adjusting incident angle. […] The light source for transmitted and fluorescence imaging were the stocking halogen and mercury lamp of the microscope, respectively. The excitation and emission wavelength used for imaging Alexa Fluor 488 labelled WGA were 488 nm and 518 nm, respectively, and the power density on the sample was ~0.1 mW/cm^2. A CMOS camera (ORCA-Flash 4.0, Hamamatsu) was used to record the images. […]

wild-type SH-EP1 cells = assay: control: acetylcholine on wild-type SH-EP1 cells (no nAChR) measured by CAR; format: binding; settings: wild-type SH-EP1 cells without nAChR, 50, 100, 200 nM
Procedure: as §1, §2, §3

[2] = molecular target: T1, nicotinic acetylcholine receptor (nAChR), human α4β2 receptor on SH-EP1_α4β2 cells; assay: acetylcholine binding to nAChR on SH-EP1_α4β2 cells measured by SPR; settings: SH-EP1_α4β2 cells on gold; 50, 100, 200 nM
Procedure: as §1, §2, §3

CC(=O)OCC[N+](C)(C)C [acetylcholine]
kd [1]: (1.5±0.1)×10^-3 s^-1
CAR response (wild-type SH-EP1 cells): negligible
CAR response (wild-type SH-EP1 cells; listed as Acetylcholine): No clear CAR response
SPR response [2]: no measurable response
